This is an account of results in paper PMC9721424, “Novel N-methylsulfonyl-indole derivatives: biological activity and COX-2/5-LOX inhibitory effect with improved gastro protective profile and reduced cardio vascular risks” (Journal of Enzyme Inhibition and Medicinal Chemistry, 2022).

The test system of data set [1] is Gram-positive bacteria, Gram-negative bacteria, and yeast fungus. Briefly: Disc diffusion antimicrobial screening, whole panel. The class given is cell-based. The following applies: all tested Gram-positive and Gram-negative bacteria, read-out: diameters of inhibition zones. How it is done: All compounds were screened for their antimicrobial activity at the Microbiology and Immunology Department, Faculty of Pharmacy, Beni-Suef University. The antimicrobial activity screening was carried out using the disc diffusion method, as described earlier, with some adjustments.
For each indicator microbe, a solution of half McFarland turbidity was prepared in sterile saline, followed by surface streaking of the strains on Mueller-Hinton agar with a sterile cotton swab. Then, sterile filter paper discs (5 mm diameter) preloaded with 100 µg of each compound were applied to the surface of the pre-inoculated plates. Then, the plates were chilled at 4 °C for 100 min before being incubated overnight at the proper temperature for microbial growth. Finally, the diameter of the inhibition zones around each disc was measured to evaluate the antimicrobial activity of the compounds. Ciprofloxacin was used as a standard antibacterial agent at a concentration of 20 µg/disc. Furthermore, DMSO-loaded discs were used as a negative control.

The conditions of data set [2]: antimicrobial and antifungal activity; cited from earlier work.
The next data set deals with stomach mucosa. The data set is described as follows: Ulcerogenic liability (ulcer index). The class given is in vivo. The conditions noted are these: rats, 50 mg/kg dosage for three consecutive days, mean of 6 rats. How it is done: In this study, adult male Wister albino rats weighing 160–180 g were used. Before any experimental procedure, rats were given 14 days to acclimate. These rats were maintained in a controlled setting with food and water available. All experiments were conducted in accordance with laboratory animal care guidelines. All experimental procedures were carried out in accordance with the regulations of the Committee of Ethics for Scientific Research on Living Organisms, Faculty of Pharmacy, Nahda University, Beni-Suef (NUB). The approval number was (NUB-019–025). […] Before drug administration, rats were fasted for 18 h and then separated into four groups. The control group received a suspension of the vehicle (10% DMSO in saline was given P.O (100 mg/kg) once daily). […] Rats were given the required dose for three consecutive days. Following the last dose, the stomachs of each rat were dissected and opened via the greater curvature and rinsed with saline. For investigation, the dissected stomach was stretched with pins on a cork board. Through illuminated magnifying lenses, the stomach mucosa was examined for the existence of ulcers. Cho and Ogle’s method[45]^,[46] was used to calculate the ulcer index.

The subject of another data set is stomach. The data set is described as follows: Histopathological examination of stomach. The class given is in vivo, rats. The conditions noted are these: rat, in vivo. How it is done: In brief, the stomachs of each animal group’s rat were fixed in 10% neutral buffered formalin for 48 h. The sections were then dehydrated, cleared, fixed in paraffin, sectioned ([…]), and stained with H&E stain.

The subject of data set [3] is heart function biomarkers (LDH, CK-MB, and troponin). The data set is described as follows: Cardiac function biomarkers in rat serum. Type of data set: in vivo, rats. The following applies: 50 mg/kg/day p.o. for 2 weeks, mean ± SEM. Here is the method:
(§1) Eighteen rats were divided into three groups at random (6 animals in each group). The first group was given a vehicle and served as normal control. […] Ketamine (100 mg/kg) was used to anaesthetise the animals on the 15th day. Blood samples were obtained from the retro orbital, allowed to clot, centrifuged at 1000 g for 15 min, and utilised to examine heart function biomarkers (LDH, CK-MB, and troponin). The abdomen of each rat was opened, and the heart was extracted and washed in ice-cold physiological saline before being harnessed for histological investigation.

In another data set the test system is heart. The data set is described as follows: Histopathological examination of the heart. Type of data set: in vivo. The following applies: rats, two weeks administration, H&E stain. Here is the method: as §1

Marks after values point to notes of the source that are not given here. A value given as a limit tells only on which side of the number the result lay.

Take `O=C(O)c1cn(C2CC2)c2cc(N3CCNCC3)c(F)cc2c1=O` [ciprofloxacin]: in data set [1], the zone of inhibition at 20 µg/disc fell in the range of 34 to 48 mm. Moreover, the minimum inhibitory concentration (MIC) in data set [2] is below 3.90 µg/mL.
Take `Cc1ccc(-c2cc(C(F)(F)F)nn2-c2ccc(S(N)(=O)=O)cc2)cc1` [Celecoxib, reference compound]: the Ulcer index in the data set on stomach mucosa is listed as 3.79^b. In addition, the Ulcer index in the data set on stomach mucosa (listed as celecoxib) came to 3.79. In the data set with stomach, the stomach histopathology finding entry is “multiple complete ulcers and superficial mucosal erosions with disrupted mucous layer”. In data set [3], the CK-MB is on record as 0.635 ± 0.065^a ng/ml, the LDH is 690 ± 08^a U/L and the “Troponin I” value is 0.1500 ± 0.0420^a ng/ml. The heart histopathology finding result with heart was “scattered inflamed cardiac muscle fibres with vacuolar degenerated myocytes”.
